pIC50: −log10 of the molar value. Calls of active or inactive are those of the source. No cut-off for these calls is given here.
Key:
[1] = Inhibition of BCR-ABL F311L mutant (unknown origin) expressed in mouse BaF3 cells assessed as inhibition of tyrosine phosphorylation incubated for 3 hrs by immunoblotting analysis; type: cell-based; settings: BaF3, 3 h
[2] = Inhibition of BCR-ABL M351T mutant (unknown origin) expressed in mouse BaF3 cells assessed as inhibition of cell growth incubated for 72 hrs by […] CellTiter96 viability analysis
BaF3 [3] = test: Induction of apoptosis in mouse BaF3 cells expressing Bcr-Abl M351T mutant assessed as increase in apoptotic cells at 1500 nM incubated for 72 hrs by Annexin V-phycoerythrin and 7-amino-actinomycin D staining based PCA instrument analysis relative to control; type: functional
BaF3 [4] = test: Induction of apoptosis in mouse BaF3 cells expressing Bcr-Abl F311L mutant assessed as increase in apoptotic cells at 1500 nM incubated for 72 hrs by Annexin V-phycoerythrin and 7-amino-actinomycin D staining based PCA instrument analysis relative to control; type: functional
BaF3 [5] = test: Induction of apoptosis in mouse BaF3 cells expressing Bcr-Abl T315l mutant assessed as increase in apoptotic cells at 1500 nM incubated for 72 hrs by Annexin V-phycoerythrin and 7-amino-actinomycin D staining based PCA instrument analysis relative to control; type: functional
BaF3 [6] = test: Induction of apoptosis in mouse BaF3 cells expressing Bcr-Abl Q252H mutant at 30 to 300 nM incubated for 72 hrs by Annexin V-phycoerythrin and 7-amino-actinomycin D staining based PCA instrument analysis; type: functional, cell-based; settings: dose 30-300 nM
[7] = Inhibition of BCR-ABL F359V mutant (unknown origin) expressed in mouse BaF3 cells assessed as inhibition of cell growth incubated for 72 hrs by […] CellTiter96 viability analysis
[8] = Inhibition of BCR-ABL Y253F mutant (unknown origin) expressed in mouse BaF3 cells assessed as inhibition of cell growth incubated for 72 hrs by […] CellTiter96 viability analysis
[9] = Inhibition of BCR-ABL H396R mutant (unknown origin) expressed in mouse BaF3 cells assessed as inhibition of cell growth incubated for 72 hrs by […] CellTiter96 viability analysis
BaF3 [10] = test: Induction of apoptosis in mouse BaF3 cells expressing Bcr-Abl V379l mutant at 30 to 300 nM incubated for 72 hrs by Annexin V-phycoerythrin and 7-amino-actinomycin D staining based PCA instrument analysis; type: functional, cell-based; settings: dose 30-300 nM
BaF3 [11] = test: Induction of apoptosis in mouse BaF3 cells expressing Bcr-Abl G250E mutant assessed as increase in apoptotic cells at 1500 nM incubated for 72 hrs by Annexin V-phycoerythrin and 7-amino-actinomycin D staining based PCA instrument analysis relative to control; type: functional
[12] = Inhibition of BCR-ABL F311L mutant (unknown origin) expressed in mouse BaF3 cells assessed as inhibition of cell growth incubated for 72 hrs by […] CellTiter96 viability analysis
BaF3 [13] = test: Induction of apoptosis in mouse BaF3 cells expressing Bcr-Abl H396R mutant at 30 to 300 nM incubated for 72 hrs by Annexin V-phycoerythrin and 7-amino-actinomycin D staining based PCA instrument analysis; type: functional, cell-based; settings: dose 30-300 nM
BaF3 [14] = test: Induction of apoptosis in mouse BaF3 cells expressing Bcr-Abl E255K mutant assessed as increase in apoptotic cells at 1500 nM incubated for 72 hrs by Annexin V-phycoerythrin and 7-amino-actinomycin D staining based PCA instrument analysis relative to control; type: functional
BaF3 [15] = test: Induction of apoptosis in mouse BaF3 cells expressing Bcr-Abl M244V mutant assessed as increase in apoptotic cells at 1500 nM incubated for 72 hrs by Annexin V-phycoerythrin and 7-amino-actinomycin D staining based PCA instrument analysis relative to control; type: functional
[16] = Inhibition of BCR-ABL Y253H mutant (unknown origin) expressed in mouse BaF3 cells assessed as inhibition of cell growth incubated for 72 hrs by […] CellTiter96 viability analysis
[17] = Inhibition of BCR-ABL F317L mutant (unknown origin) expressed in mouse BaF3 cells assessed as inhibition of cell growth incubated for 72 hrs by […] CellTiter96 viability analysis
BaF3 [18] = test: Induction of apoptosis in mouse BaF3 cells expressing Bcr-Abl E255K mutant at 30 to 300 nM incubated for 72 hrs by Annexin V-phycoerythrin and 7-amino-actinomycin D staining based PCA instrument analysis; type: functional, cell-based; settings: dose 30-300 nM
BaF3 [19] = test: Induction of apoptosis in mouse BaF3 cells expressing wild-type Bcr-Abl assessed as increase in apoptotic cells at 1500 nM incubated for 72 hrs by Annexin V-phycoerythrin and 7-amino-actinomycin D staining based PCA instrument analysis relative to control; type: functional
BaF3 [20] = test: Induction of apoptosis in mouse BaF3 cells expressing Bcr-Abl H396P mutant at 30 to 300 nM incubated for 72 hrs by Annexin V-phycoerythrin and 7-amino-actinomycin D staining based PCA instrument analysis; type: functional, cell-based; settings: dose 30-300 nM
BaF3 [21] = test: Induction of apoptosis in mouse BaF3 cells expressing Bcr-Abl E255V mutant assessed as increase in apoptotic cells at 1500 nM incubated for 72 hrs by Annexin V-phycoerythrin and 7-amino-actinomycin D staining based PCA instrument analysis relative to control; type: functional
BaF3 [22] = test: Induction of apoptosis in mouse BaF3 cells expressing Bcr-Abl Q252H mutant assessed as increase in apoptotic cells at 1500 nM incubated for 72 hrs by Annexin V-phycoerythrin and 7-amino-actinomycin D staining based PCA instrument analysis relative to control; type: functional
[23] = Inhibition of BCR-ABL E255K mutant (unknown origin) expressed in mouse BaF3 cells assessed as inhibition of cell growth incubated for 72 hrs by […] CellTiter96 viability analysis
BaF3 [24] = test: Induction of apoptosis in mouse BaF3 cells expressing Bcr-Abl F317L mutant assessed as increase in apoptotic cells at 1500 nM incubated for 72 hrs by Annexin V-phycoerythrin and 7-amino-actinomycin D staining based PCA instrument analysis relative to control; type: functional
BaF3 [25] = test: Induction of apoptosis in mouse BaF3 cells expressing Bcr-Abl M351T mutant at 30 to 300 nM incubated for 72 hrs by Annexin V-phycoerythrin and 7-amino-actinomycin D staining based PCA instrument analysis; type: functional, cell-based; settings: dose 30-300 nM
BaF3 [26] = test: Induction of apoptosis in mouse BaF3 cells expressing Bcr-Abl G250E mutant at 30 to 300 nM incubated for 72 hrs by Annexin V-phycoerythrin and 7-amino-actinomycin D staining based PCA instrument analysis; type: functional, cell-based; settings: dose 30-300 nM
BaF3 [27] = test: Induction of apoptosis in mouse BaF3 cells expressing Bcr-Abl E255V mutant at 30 to 300 nM incubated for 72 hrs by Annexin V-phycoerythrin and 7-amino-actinomycin D staining based PCA instrument analysis; type: functional, cell-based; settings: dose 30-300 nM
BaF3 [28] = test: Induction of apoptosis in mouse BaF3 cells expressing Bcr-Abl F311L mutant at 30 to 300 nM incubated for 72 hrs by Annexin V-phycoerythrin and 7-amino-actinomycin D staining based PCA instrument analysis; type: functional, cell-based; settings: dose 30-300 nM
[29] = BaF3, time 72 hrs, condition chronic myelogenous leukemia

Cc1cn(-c2cc(NC(=O)c3ccc(C)c(Nc4nccc(-c5cccnc5)n4)c3)cc(C(F)(F)F)c2)cn1 [NILOTINIB]
pIC50 [1]: 7.36
pIC50 ([2]; BaF3, 72 h): 7.82
IC90 [2, 29]: 31 nM
Activity (BaF3 [3]): >90%
Activity (BaF3 [4]): >90%
Activity (BaF3 [5]): 3%
Activity (BaF3 [6]): Active
pIC50 ([7]; BaF3, 72 h): 6.76
IC90 [7, 29]: 385 nM
pIC50 ([8]; BaF3, 72 h): 6.90
IC90 [8, 29]: 215 nM
pIC50 ([9]; BaF3, 72 h): 7.39
IC90 [9, 29]: 73 nM
Activity (BaF3 [10]): Active
Activity (BaF3 [11]): >90%
pIC50 ([12]; BaF3, 72 h): 7.64
IC90 [12, 29]: 48 nM
Activity (BaF3 [13]): Active
Activity (BaF3 [14]): >90%
Activity (BaF3 [15]): >90%
pIC50 ([16]; BaF3, 72 h): 6.35
IC90 [16, 29]: 1020 nM
pIC50 ([17]; BaF3, 72 h): 7.30
IC90 [17, 29]: 116 nM
Activity (BaF3 [18]): Active
Activity (BaF3 [19]): >90%
Activity (BaF3 [20]): Active
Activity (BaF3 [21]): 65%
Activity (BaF3 [22]): >90%
pIC50 ([23]; BaF3, 72 h): 6.70
IC90 [23, 29]: 415 nM
Activity (BaF3 [24]): >90%
Activity (BaF3 [25]): Active
Activity (BaF3 [26]): Active
Activity (BaF3 [27]): Active
Activity (BaF3 [28]): Active
